Measured values taken from patent US6160008A, “Pharmaceutical compositions comprising S-alkylisothiouronium derivatives” (priority 1996, dated 2000).
Entries after “also recorded” stand apart in the source; their conditions may differ.

Key:
[1] = test system: acute arterial hypotension, caused by the hexamethonium administration; assay: Acute arterial hypotension caused by hexamethonium (Table 5); format: in vivo, cats; conditions: for AP / HF: 5 mg/kg i.v. after hexamethonium 10 mg/kg
Protocol: The influence of S-ethylisothiouronium diethylphosphate on the background of arterial hypotension caused by a known ganglion blocker-hexamethonium has been studied in cats. Hexamethonium was injected intra- venously at a dose of 10 mg/kg. Vagus and schiatic nerve stimulation was carried out by electrical pulsator with the above-threshold rectangular pulse current having a duration of 1 msec, irritation time of 10 sec, and frequency of 20 pulses/sec (peripheral section of the vagus nerve), and frequency of 300 pulses/sec (central end of the schiatic nerve).

[2] = test system: cardiovascular system of dogs; assay: Effect on the cardiovascular system of dogs (FIGS. 11-13); format: in vivo; conditions: i.v.
Protocol: In the following tests, the effect of S-ethylisothiouronium diethylphosphate was studied on the cardiovascular system of dogs. AP was measured by two methods: it was registered on the tail artery by means of a piezosensor (Ugo Bazile pressure gauge) and in the thigh artery by a catheter filled with heparin. Electrocardiogram was registered in three standard branches.
S-ethylisothiouronium diethylphosphate was injected at doses of 1 mg/kg (n=5), 5 mg/kg (n=18), and 100 mg/kg (n=8). […] The development of a bradycardiac effect was noted which started already on the first minutes after the injection, reaching on the average 25-30% of the initial level. Maximal bradycardiac value was observed on the 30th-40th minutes after the experiment started and maintained till the 60th minute of the observation.
Due to this fact the study was carried out separately for normotonics and hypotonics.

[3] = Biochemical indices of mice blood serum, acute experiment (Table 8); format: in vivo, F1 (C57B1×CBA); conditions: 500 mg/kg i.v.; for Total protein: in g/L (unit assumed)
Protocol: The effect of S-ethylisothiouronium diethylphosphate on body constituents was estimated in chronic and acute experiments. These experiments were conducted on F1 (C57B1×CBA) line mice and biochemical tests were made after a single administration of S-ethylisothiouronium diethylphosphate, injected intravenously at doses of 100 mg/kg (in the chronic experiment) and 500 mg/kg (in the acute experiment).
In the acute experiment, blood was taken 30, 60 and 75 minutes after the administration of the medicine. In the chronic experiment (which lasted 30 days), blood was daily examined 1 hour after the injection. Terms of the study were 1, 7, 14, and 21 days. The concentrations of total protein, total cholesterol, and glucose in mice blood serum were determined by conventional methods. Total protein was determined by a biuret method, total cholesterol--by like method, glucose--by the glucose-oxidase method.
Mouse blood was obtained after rapid decapitation. Tested material was sampled at the same time of the day and on the same season.
Blood for serum was sampled into centrifuge test tubes, put into the thermostat for 30-40 minutes; the clot was outlined by a needle, then it was put into a refrigerator for 1 hour+4° C. After cooling it was centrifuged at 3000 RPM during 10-15 minutes. Serum with no signs of hemolysis was sampled into a clean tube. All quantitative indices of the blood biochemical characteristics were obtained by spectrophotometric measurements. Calibration curves to determine total protein and cholesterol were constructed in advance.

[4] = Biochemical tests of dog blood serum and general toxicity, 3-day experiment (Tables 10-14); format: in vivo; conditions: 10 mg/kg i.v. daily, 3 days, dogs
Protocol: In an experiment on dogs, the functional condition of the organism was estimated by biochemical tests, after the intravenous injection of a 10% solution S-ethylisothiouronium diethylphosphate, at a dose of 10 mg/kg daily. This experiment was conducted at the same time of the day. Blood was examined 1 hour after the administration of the preparation during 3 successive days and on the 4th, the 5th and on the 10th day after injection. The concentrations of total protein, of albumin, globulins, total cholesterol, and glucose in dog blood serum were determined by conventional methods. The total protein content was determined by biureth method, total cholesterol--by like method, glucose--by glucose-oxidase method.
The general toxicity and biochemical parameters were determined in a 3-day experiment, where a 10% solution of the preparation was daily intravenously injectioned at a dose of 10 mg/kg.

[5] = test system: mice exposed to an oxygen pressure of 3 atm; assay: Survival under oxygen pressure of 3 atm, mice (Table 15); format: in vivo, F1 (CBAx57B1); conditions: for Number of survived animals: mice, 3 atm, 5 hours
Protocol: (§1) Animals were exposed to oxygen under increased pressure in a hyperbaric chamber <<Mana-2≤≤ for treatment of infants above 1 year, which was adjusted for the experiments on animals. The hyperbaric chamber design permitted to create excessive pressure up to 3 atm and to observe animal behavior from outside.
(§2) The experiments were performed on males of F1 (CBAx57B1) mice line and on males of Wistar rat line. Animals were placed in the hyperbaric chamber in plastic boxes and the atmospheric air was replaced by oxygen. The period of compression-decompression was 10 minutes. The exposure of the animals to an oxygen pressure of 3 atm during a period of 2 hours caused only some increase in their motion activity. Further staying of rats and mice in those conditions led to a decrease in the motion activity, to asphyxia with short periods of excitement and cramps. The death of some animals was registered after 2.5-3 hours, 50% after 4 hours, and 75% of mice and 100% of rats were dead after 5 hours.
(§3) When the influence of Difetur and Etyron was studied, the animals were exposed to an oxygen pressure of 3 atm during 5 hours if not otherwise specified. Preparations were injected 5-10 minutes before the session.

[6] = Lung coefficient under hyperbaric oxygen (3 atm); format: in vivo, mice and rats; conditions: for Lung coefficient (lung mass/body mass X100): hyperbaric oxygen
Protocol: as §1, §2, §3
After the session the dead animals were autopsied, their lungs were removed, and the index <<lung mass in gr./body mass in gr. X100>> (i.e. lung coefficient) was defined.

## CCSC(=N)N [S-ethylisothiouronium diethylphosphate]
[1]; 2 min
  AP: 152.0 ± 4.6 mm Hg
  HF: 120.0 ± 12.0 per min.
[1]; 15 min
  AP: 147.0 ± 7.8 mm Hg
  HF: 105.6 ± 11.6 per min.
[1]; 30 min
  AP: 146.8 ± 4.8 mm Hg
  HF: 109.2 ± 11.1 per min.
[1]; 60 min
  AP: 143.0 ± 7.2 mm Hg
  HF: 108.0 ± 15.8 per min.
[1]; 5 mg/kg i.v. after hexamethonium, 2nd minute
  AP increase: 61 mm Hg
[1]; after hexamethonium
  Effect under ganglion blockade in words: Respiratory rate did not change; also recorded: HR changed to the direction of bradycardia, however, those changes were not statistically significant; also recorded: ganglion blocking properties are completely retained; also recorded: quickly restores the AP level after the ganglion blocker caused hypotension and maintains it for a long time
[2]; all doses
  Electrocardiogram: did not reveal any pathological changes
[2]; dogs
  Bradycardiac effect, relative to the initial level: 25-30%
  Optimal dose: 5 to 10 mg/kg
[2]; dogs, all doses
  Hypertensive effect in words: does not cause secondary hypotension; also recorded: greater in hypotensive than in normotensive animals; also recorded: pronounced hypertensive effect at all the doses used
[2]; dogs, all doses, listed as S-ethylisothiouroniumdiethylphosphate
  Hypertensive effect in words: the hypertensive reaction in dogs with low arterial pressure is stronger and more prolonged
[3]; 30 min
  Body mass: 24.8 ± 1.2 g
  Glucose: 13.4 ± 2.6 mmol/L
  Total cholestrol: 7.8 ± 1.2 mmol/L
  Total protein: 99.0 ± 4.3
[3]; 30 minutes
  Serum biochemistry in words: an increase in the concentration of total protein, cholesterol and glucose was observed, which subsequently had the tendency for normalization
[3]; 60 min
  Body mass: 26.1 ± 1.8 g
  Glucose: 9.0 ± 0.8 mmol/L
  Total cholestrol: 7.2 ± 1.6 mmol/L
  Total protein: 89.4 ± 4.6
[3]; 75 min
  Body mass: 26.0 ± 0.5 g
  Glucose: 6.6 ± 1.0 mmol/L
  Total cholestrol: 5.4 ± 1.2 mmol/L
  Total protein: 87.6 ± 3.8
[4]
  General toxicity and serum biochemistry in words: wavy fluctuations with the tendency to decrease on the 4th and 5th day; also recorded: The level of albumins and globulins also changed in a wavy manner; also recorded: The level of total cholesterol and glucose had slight fluctuations which did not overstep the fluctuation limits of healthy dogs; also recorded: no evidence was found for intoxication or any significant deviation between the parameters studied and the initial data; also recorded: individual sensitivity of the animals to intravenous injection of the preparation was not found
[5]; 5 mg/kg
  Number of survived animals: 25%
[5]; 10 mg/kg
  Number of survived animals: 65%
[5]; 20 mg/kg
  Number of survived animals: 88%
[5]; mouse, in vivo
  Oxygen protective activity compared with Etyron: exceed Etyron in oxygen protective activity
[6]; 5 mg/kg
  Lung coefficient (lung mass/body mass X100): 0.95±0.09
[6]; 10 mg/kg
  Lung coefficient (lung mass/body mass X100): 0.97±0.09
[6]; 20 mg/kg
  Lung coefficient (lung mass/body mass X100): 0.88±0.08
[6]; in vivo
  Lung protection in words: considerable protective efficiency regarding the lung tissue
